For assay [1], the target named is rat striatal dopamine receptor (Rattus norvegicus, UniProt P61169). Nature of the assay: Test A: [3H]Spiroperidol displacement from rat striatal dopamine receptor binding sites. The conditions noted are these: rat striatal membranes, [3H]spiroperidol 0.19 nM, 37° C., 10 minutes, pH 7.6; read-out: Test A receptor DA IC50. As to the method:
Test A--[^3 H Spiroperidol displacement from rat striatal dopamine receptor binding sites
(a) Radioligand--[phenyl-4-(n)-^3 H]Spiroperido (Amersham International, TRK 570, 21 Ci/mmol was used as a 1 μCi/1 μl solution in ethanol and this solution was diluted to 250 μCi in 1 ml of ethanol to produce a stock solution. This stock solution was diluted 3.2/10,000 in assay buffer and 0.1 ml volumes of this were added to 2 ml binding assays =0.19 nM [^3 H]spiroperidol and =[…]
(b) Assay buffer--The assay buffer was a modified 50 mM Tris HCl buffer with a pH of 7.6 containing the following additions: NaCl-120 mM, KCl-5 mM, MgCl2 -1 mM, CaCl2 -2 mM, Pargyline-10 μM and 1-Ascorbic Acid-0.1%
(c) Membrane preparation--The striata were dissected from male CFHB rats and homogenized in 20 volumes of ice cold 0.32M sucrose with a Teflon/glass homogenizer and the homogenate was centrifuged at 1000 g for 10 minutes. The resulting supernatant was recentrifuged at 30,000 g for 30 minutes and the supernatant was discarded and the pellet was resuspended by homogenization in 30 volumes of ice cold assay buffer.
(d) Non-specific binding--Non-specific binding was accounted for by the inclusion of 1 μM(+)butaclamol in blank binding assays which required a stock solution of 20 μM in distilled water.
(e) Displacing compounds--Solutions were prepared at 20x final assay concentration in distilled water.
(f) Binding assay protocol--1.3 ml assay buffer, 0.5 ml membrane suspension, 0.1 ml distilled H2 O or drug solution and 0.1 ml [^3 H]spiroperidol dilution Binding assays were made up in ice with the [^3 H]spiroperidol being added last and incubated at 37° C. for 10 minutes. The bound ligand was separated by filtration through Whatman GF/C filters under vacuum followed by 2×10 ml rinses of ice cold assay buffer. The filters were dried at 80° C. and counted in 5 ml volumes of ECONOFLUOR (NEN) scintillation cocktail. All binding assays, controls, blanks and each of four displacer concentration were run in triplicate. IC50 values (Test A) were obtained graphically from log dose versus percent inhibition of specific binding plots.

Assay [2] addresses rat cortical muscarinic receptor. Kind of assay: Test D: [3H]Quinuclidinyl benzylate displacement from rat cortical muscarinic receptor binding sites. The conditions noted are these: rat cortical membranes, [3H]quinuclidinyl benzylate 0.31 nM, 25° C., 60 minutes; read-out: Test D MUSC IC50. As to the method: Test D--[^3 H]Quinuclidinyl benzylate displacement from rat cortical muscarinic receptor binding sites
(a) Radioligand--DL-[3-^3 H]Quinuclidinyl benzylate (Amersham International, TRK 506, 12 Ci/mmol) was used as a 1 μCi/1 μl solution and this stock solution was diluted 1/13333 in assay buffer and 0.1 ml volumes of this were added to 2 ml binding assay =0.31 nM and =0.0075 μCi/binding assay
(§1) (b) Membrane preparation--As for Test B
(c) Non-specific binding--Non-specific binding was accounted for by the inclusion of 100 μM oxotremorine sesquifumarate in blank binding assays and this required a stock solution of 2 mM in distilled H2 O.
(d) Displacement compounds--As for Test B
(e) Assay protocol--As for Test B with the exception that the binding assays were incubated at 25° C. for 60 minutes.

The target in the next assay is rat cortical α1 receptor. Nature of the assay: Test B: [3H]Prazosin displacement from rat cortical α1 receptor binding sites. Conditions: rat cerebral cortex membranes, [3H]prazosin 0.1 nM, 25° C., 30 minutes, pH 7.5. The procedure:
Test B--[^3 H]Pyrazosin displacement from rat cortical α1 receptor binding sites (a) Radioligand--[^3 H]Prazosin (Amersham International, TRK 647, 28 Ci/mmole) was used as a 1 μCi/1 μl solution and this stock solution was diluted 1/18,000 in assay buffer and 0.1 ml volumes of this were added to 2 ml binding assay. =0.1 nM [^3 H]Prazosin and =0.0056 μCi/binding assay (b) Membrane preparation--The cerebral cortices were dissected from male CFHB rats and homogenized in 20 volumes of ice cold 0.32M sucrose using a Teflon/glass homogenizer and the homogenate was centrifuged at 1000 g for 10 minutes. The resulting pellet was discarded and the supernatant was recentrifuged at 30,000 g for 30 minutes. The supernatant was discarded and the pellet was resuspended by homogenization in 50 volumes of 50 mM pH 7.5 Tris HCl buffer (assay buffer). (c) Non-specific binding--Non-specific binding was accounted for by the inclusion of 100 μM 1-noradrenaline in blank binding assays which required a stock solution of 2 mM 1-noradrenaline made up fresh daily in 0.1% 1-ascorbic acid. (d) Displacing compounds--Solutions were prepared at 20x final assay concentration in distilled water. (e) Binding assay protocol--1.3 ml assay buffer, 0.5 ml membrane suspension, 0.1 ml distilled H2 O or drug solution and 0.1 ml [^3 H]pyrazosin dilution Binding assays were made up in ice with the [^3 H]pyrazosin being added last and incubated at 25° C. for 30 minutes. The bound ligand was separated by filtration through Whatman GF/C glass fibre filters under vacuum followed by 2×10 ml rinses of ice cold assay buffer. The filters were dried at 80° C. and counted in 5 ml volumes of ECONOFLUOR (NEN) scintillation cocktail. All binding assays, controls, blanks and each of four displacer concentrations were run in triplicate. IC50 values (Test B) were obtained graphically from log dose versus percent inhibition of specific binding plots.

The next assay addresses rat cortical α2 receptor. Kind of assay: Test C: [3H]Dihydroergocryptine displacement from rat cortical α2 receptor binding sites. The conditions noted are these: rat cortical membranes, [3H]dihydroergocryptine 0.45 nM, 25° C., 45 minutes in the dark; approximately 80% of binding is α2. As to the method:
Test C--[^3 H]Dihydroergocryptine displacement from rat cortical α2 *receptor binding sites
(a) Radioligand--[9,10(n)-^3 H]9,10-Dihydroergocryptine (Amersham International, TRK 555, 17.5 Ci/mmole) was used as a 1 μCi/1 μl solution and this stock solution was diluted 1/6250 in assay buffer and 0.1 ml volumes of this were added to 2 ml binding assays. =0.45 nM and =0.016 μCi/binding assay
*In cortical membranes, [^3 H]dihydroergocryptine binds to both α1 and α2 receptor binding sites under the conditions of assay described here, approximately 80% of the binding is associated with α2 receptors.
as §1
(c) Non-specific binding--As for Test B
(d) Displacing compounds--As for Test B
(e) Assay protocol--As for Test B with the exception that the binding assays were incubated at 25° C. for 45 minutes in the dark.

Where a name gives a salt, the structure may show the parent alone.

Sequence of rat striatal dopamine receptor (P61169 whole entry): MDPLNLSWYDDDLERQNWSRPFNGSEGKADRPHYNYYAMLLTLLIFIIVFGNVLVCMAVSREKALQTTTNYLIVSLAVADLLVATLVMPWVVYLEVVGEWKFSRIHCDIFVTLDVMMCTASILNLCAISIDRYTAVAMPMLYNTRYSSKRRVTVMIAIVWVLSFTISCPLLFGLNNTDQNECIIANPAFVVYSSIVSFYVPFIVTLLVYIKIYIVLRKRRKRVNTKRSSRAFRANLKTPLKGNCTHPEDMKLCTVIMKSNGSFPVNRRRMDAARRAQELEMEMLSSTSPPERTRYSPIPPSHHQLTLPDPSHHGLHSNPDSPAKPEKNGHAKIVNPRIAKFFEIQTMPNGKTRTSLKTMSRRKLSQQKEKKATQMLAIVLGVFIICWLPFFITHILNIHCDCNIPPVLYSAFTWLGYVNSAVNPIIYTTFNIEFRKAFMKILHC

Take `Cc1ccc2sc3c(c(=O)c2c1)CNCC3` [Example 2, 1,2,3,4-tetrahydro-8-methyl-10H-(1)benzothiopyrano[3,2-c]pyridin-10-one hydrochloride]: the 50% inhibitory concentration (IC50) in assay [1] is above 10000 nM; in assay [2], 45700 nM; on rat cortical α1 receptor it was above 10000 nM; on rat cortical α2 receptor it was 3300 nM.
For the molecule `CC(C)CN1CCc2sc3ccccc3c(=O)c2C1` [Example 19, 1,2,3,4-tetrahydro-2-isobutyl-10H-(1)-benzothiopyrano[3,2-c]pyridin-10-one hydrochloride], the IC50 in assay [1] is 100 nM; in assay [2] it was above 100000 nM; on rat cortical α1 receptor it was 4600 nM; on rat cortical α2 receptor it was 150 nM.
The corresponding values for `O=c1c2c(sc3ccccc13)CCN(CC1CCCCCC1)C2` [Example 28] are 150 nM, above 100000 nM, 2820 nM and 320 nM.
On to `CCCCCCN1CCc2sc3ccccc3c(=O)c2C1` [Example 18, 2-n-hexyl-1,2,3,4-tetrahydro-10H-(1)-benzothiopyrano[3,2-c]pyridin-10-one hydrochloride], for which the concentration for half-maximal inhibition (IC50) in assay [1] turned out to be 130 nM; in assay [2] it was 15800 nM; on rat cortical α1 receptor, 400 nM; on rat cortical α2 receptor, 80 nM.
With `O=c1c2c(sc3ccc(Cl)cc13)CCNC2` [Example 7, 8-chloro-1,2,3,4-tetrahydro-10H-(1)-benzothiopyrano[3,2-c]pyridin-10-one hydrochloride], the IC50 in assay [1] was 5100 nM; in assay [2], 85100 nM; at rat cortical α1 receptor it was above 10000 nM; on rat cortical α2 receptor, 2200 nM.
Consider `CN1CCc2sc3ccccc3c(=O)c2C1` [Example 12, 1,2,3,4-tetrahydro-2-methyl-10H-(1)-benzothiopyrano[3,2-c]pyridin-10-one hydrochloride], for which the concentration for half-maximal inhibition (IC50) in assay [1] stood at 2800 nM; in assay [2], 32400 nM; at rat cortical α1 receptor, 3100 nM; on rat cortical α2 receptor it was 930 nM.
Take `C=CCN1CCc2sc3ccccc3c(=O)c2C1` [Example 34]: the concentration for half-maximal inhibition (IC50) in assay [1] stood at 2810 nM; in assay [2] it was 37200 nM; at rat cortical α1 receptor, 3980 nM; at rat cortical α2 receptor it was 390 nM.
The corresponding values for `COc1ccc2c(=O)c3c(sc2c1)CCNC3` [Example 3, 1,2,3,4-tetrahydro-7-methoxy-10H-(1)-benzothiopyrano[3,2-c]pyridin-10-one hydrochloride] are above 10000 nM, 26900 nM, above 10000 nM and 4300 nM.
Regarding `COc1ccc2sc3c(c(=O)c2c1)CN(CC1CCCCC1)CC3` [Example 38, 2-cyclohexylmethyl-8-methoxy-1,2,3,4-tetrahydro-10H-(1)-benzothiopyrano[3,2-c]pyridin-10-one hydrochloride], the IC50 was 760 nM in assay [1], 91200 nM in assay [2], above 10000 nM on rat cortical α1 receptor and 2190 nM on rat cortical α2 receptor.
With `O=c1c2c(sc3ccccc13)CCN(CCC1CCCCC1)C2` [Example 30], the concentration for half-maximal inhibition (IC50) was 180 nM in assay [1], above 100000 nM in assay [2], 1150 nM at rat cortical α1 receptor and 190 nM on rat cortical α2 receptor.
As to `O=c1c2c(sc3ccccc13)CCN(CC1CCCC1)C2` [Example 27, 2-cyclopentylmethyl-1,2,3,4-tetrahydro-10H-(1)-benzothiopyrano[3,2-c]pyridin-10-one], the half-inhibitory concentration (IC50) was determined as 40 nM in assay [1], 57500 nM in assay [2], 680 nM on rat cortical α1 receptor and 50 nM at rat cortical α2 receptor.
Consider `CCOC(=O)CCN1CCc2sc3ccccc3c(=O)c2C1` [Example 21, 2-(2-ethoxycarbonylethyl)-1,2,3,4-tetrahydro-10H-(1)-benzothiopyrano[3,2-c]pyridin-10-one hydrochloride], for which the IC50 in assay [1] amounted to 780 nM; in assay [2], 100000 nM; at rat cortical α1 receptor, 7100 nM; at rat cortical α2 receptor it was 1000 nM.
On to `O=c1c2c(sc3ccccc13)CCN(Cc1ccccc1)C2` [Example 6, 2-benzyl-1,2,3,4-tetrahydro-10H-(1)-benzothiopyrano[3,2-c]pyridin-10-one hydrochloride], for which the IC50 in assay [1] was 680 nM; in assay [2], above 100000 nM; at rat cortical α1 receptor it was 4000 nM; at rat cortical α2 receptor, 500 nM.
As to `O=c1c2c(sc3ccccc13)CCNC2` [Example 1, 1,2,3,4-tetrahydro-10H-(1)-benzothiopyrano[3,2-c]pyridin-10-one hydrochloride], the concentration for half-maximal inhibition (IC50) in assay [1] came out at 6500 nM; in assay [2], 32000 nM; on rat cortical α1 receptor, 6600 nM; at rat cortical α2 receptor, 600 nM.
On to `O=c1c2c(sc3ccccc13)CCN(CC1=CCCCC1)C2` [Example 29], for which the IC50 in assay [1] was 170 nM; in assay [2], above 100000 nM; on rat cortical α1 receptor it was 2630 nM; on rat cortical α2 receptor, 150 nM.
Take `O=c1c2c(sc3ccc(F)cc13)CCN(CC1CCCCC1)C2` [Example 24, 2-cyclohexylmethyl-8-fluoro-1,2,3,4-tetrahydro-10H-(1)-benzothiopyrano[3,2-c]pyridin-10-one hydrochloride]: the half-maximal inhibitory concentration (IC50) is 40 nM in assay [1], above 100000 nM in assay [2], above 10000 nM at rat cortical α1 receptor and above 10000 nM at rat cortical α2 receptor.
For the molecule `O=C(CCCN1CCc2sc3ccccc3c(=O)c2C1)c1ccc(F)cc1` [Example 16, 2-(4-p-fluorophenyl-4-oxobutyl)-1,2,3,4-tetrahydro-10H-(1)-benzothiopyrano-[3,2-c]pyridin-10-one hydrochloride], the IC50 is 20 nM in assay [1], above 100000 nM in assay [2], 20 nM on rat cortical α1 receptor and 20 nM at rat cortical α2 receptor.

As usually defined, the IC50 is the concentration needed to halve the response being measured.

The values above are taken from US4547507A, “Benzothiopyranopyridinones” (Roussel Uclaf, priority 1982, dated 1985).
